Where two headings read alike, the source gives them in different places.

As usually defined, the IC50 is the concentration at which inhibition is half-maximal. A low value points to inhibition by little substance. As usually defined, the melting point is the temperature, or range, at which the solid turns liquid.

One data set deals with MGC-803 cells. Description: MTT cell growth inhibition assay, MGC-803. The format is cell-based, human. Conditions: for IC50: MTT, 48 h incubation, MGC-803; for SI IC50 (L-02/MGC-803): selectivity index, IC50 (L-02)/IC50 (MGC-803). The source says:
(§1) All human cell lines were used in this study. MGC-803 late-stage differentiation gastric cancer cell, A549 lung cancer cell, HepG2 hepatoma cell, AGS gastric cancer cell, BEL-7402 liver cancer cell, HCT-116 colorectal cancer cell, HeLa cervical cancer cell, SGC-7901 early differentiation gastric cancer cell, L-02 normal liver cell, MCF-7 breast cancer cell, and MCF-10A normal breast cell were initially purchased from American Type Culture Collection (ATCC, Manassas, VA, USA). RPMI-1640 media, Dulbecco’s modified Eagle’s medium (DMEM), and foetal bovine serum (FBS) were provided from Gibco Company (Grand Island, NY, USA). The cells were maintained in DMEM or RPMI-1640, supplemented with 10% FBS, 100 IU/mL penicillin and […] (Grand Island, NY, USA), and at 37 °C in a humidified atmosphere containing 5% CO2.
(§2) Cells were plated in 96-well plates at a density of 30–40% to ensure exponential growth throughout the experimental period, and then allowed to adhere for 1 day[21]. Next, the cells were treated with four serial concentrations (1, 10, 50, and 100 µM) of each compound. Taxol, CA-4, and CA-4P (phosphorylated form of CA-4) were used as positive controls. After 48 h incubation, MTT solution was added to each well at a final concentration of 2 mg/mL, and incubated for an additional 4 h. Next, the MTT solution was removed and 150 µL of dimethyl sulphoxide (DMSO)/well was added (Sigma-Aldrich, St Louis, MO, USA). The plates were shaken vigorously at RT to ensure complete solubilisation, and absorption at 492 nm was determined.
(§3) According to standard protocol, preliminary in vitro anti-proliferative activities of the synthesised compounds were evaluated by MTT assay, using nine human cancer cell lines (MGC-803, A549, HepG2, AGS, BEL-7402, HCT116, HeLa, SGC-7901, and MCF-7) and two normal human cell lines (L-02 and MCF-10A), and compared with those of CA-4, CA-4P, and taxol.

Another data set has as its system A549 lung cancer cell. Description: MTT cell growth inhibition assay, A549. Conditions: for IC50: MTT, 48 h incubation, A549. The data set is classed as cell-based, human.
Description: as §1, §2, §3

The test system of another data set is HepG2 hepatoma cell. Description: MTT cell growth inhibition assay, HepG-2. Conditions: MTT, 48 h incubation, HepG-2. The data set is classed as cell-based, human.
Description: as §1, §2, §3

Another data set has as its system AGS cells. Description: MTT cell growth inhibition assay, AGS. The format is cell-based, human. Particulars: for IC50: MTT, 48 h incubation, AGS.
Description: as §1, §2, §3

A further data set concerns BEL-7402 cells. Description: MTT cell growth inhibition assay, BEL-7402. The data set is classed as cell-based, human. Particulars: for IC50: MTT, 48 h incubation, Bel-7402.
Description: as §1, §2, §3

Another data set relates to HCT116 cells. Description: MTT cell growth inhibition assay, HCT116. Particulars: for IC50: MTT, 48 h incubation, HCT116. The format is cell-based, human.
Description: as §1, §2, §3

In the next data set the test system is L-02 normal liver cell. Description: MTT cell growth inhibition assay, L-02 (normal). The data set is classed as cell-based, human. Particulars: 48 h incubation, L-02 normal cells.
Description: as §1, §2, §3

The test system of data set [1] is HeLa cervical cancer cell. Description: MTT cell growth inhibition assay, HeLa. The format is cell-based, human. Particulars: 48 h incubation.
Description: as §1, §2, §3

Data set [2] relates to SGC-7901 early differentiation gastric cancer cell. Description: MTT cell growth inhibition assay, SGC-7901. The data set is classed as cell-based, human. Particulars: 48 h incubation.
Description: as §1, §2, §3

In data set [3] the test system is MCF-10A normal breast cell. Description: MTT cell growth inhibition assay, MCF-10A (normal). Particulars: 48 h incubation, MCF-10A normal cells. The format is cell-based, human.
Description: as §1, §2, §3

The next data set concerns MCF-7 breast cancer cell. Description: MTT cell growth inhibition assay, MCF-7. Conditions: for IC50: MTT, 48 h incubation, MCF-7. The data set is classed as cell-based, human.
Description: as §1, §2, §3

Setting [4] is: selectivity index, IC50 (L-02)/IC50 (HCT116).
The mark [5] stands for this setting: selectivity index, IC50 (MCF-10A)/IC50 (MCF-7).

Regarding `Cc1ccc(/C=C(\C#N)c2ccc(C)cc2)cc1` [Compound 13a, (Z)-2,3-Di-p-tolylacrylonitrile], the melting point lay in the range of 68 to 70 °C. Moreover, the IC50 in the data set on MGC-803 cells (Homo sapiens, MGC-803, 48 h) was > 100 µM. The IC50 in the data set with A549 lung cancer cell (Homo sapiens) is > 100 µM. Moreover, the IC50 in the data set with HepG2 hepatoma cell (Homo sapiens, HepG2) is > 100 µM. Moreover, in the data set with AGS cells (Homo sapiens), the IC50 was determined as 27.9 ± 5.84 µM. The IC50 in the data set with BEL-7402 cells (Homo sapiens) was > 100 µM. Moreover, the IC50 in the data set on HCT116 cells (Homo sapiens, HCT-116) was > 100 µM. The IC50 with L-02 normal liver cell (Homo sapiens) was > 100 µM. The IC50 in data set [1] (Homo sapiens) is > 100 µM. In addition, in [2] (Homo sapiens), the IC50 is > 100 µM. The IC50 in [3] (Homo sapiens) is > 100 µM. For the same compound, in the data set on MCF-7 breast cancer cell (Homo sapiens, MCF7), the IC50 is > 100 µM.
Consider “(Z)-3-(Naphthalen-1-yl)-2-(3,4,5-trimethoxyphenyl)acrylonitrile [Compound 7c]”, for which the IC50 with MGC-803 cells is 3.45 ± 2.11 µM; in the data set on A549 lung cancer cell it was > 100 µM; in the data set with HepG2 hepatoma cell, > 100 µM; in the data set with AGS cells it was 3.51 ± 0.25 µM; with BEL-7402 cells it was 2.53 ± 0.12 µM; in the data set on HCT116 cells, 4.58 ± 0.42 µM. The IC50 in the data set with L-02 normal liver cell is 8.21 ± 0.051 µM; in data set [1], > 100 µM; in data set [2], > 100 µM; in data set [3], 1.03 ± 0.44 µM; in the data set on MCF-7 breast cancer cell it was 2.83 ± 0.35 µM.
`COc1cc(/C(C#N)=C/c2ccc(C(C)C)cc2)cc(OC)c1OC` [Compound 6f, (Z)-3-(4-Isopropylphenyl)-2-(3,4,5-trimethoxyphenyl)acrylonitrile] displayed a melting point of 156 to 158 °C. The compound also showed an IC50 with MGC-803 cells (Homo sapiens, MGC-803, 48 h) of 7.21 ± 3.65 µM. In addition, the “SI IC50 (L-02/MGC-803)” value with MGC-803 cells is listed as >13.8. In the data set with A549 lung cancer cell (Homo sapiens), this compound had an IC50 of 36.62 ± 0.134 µM. Also, in the data set with A549 lung cancer cell (selectivity index, IC50 (L-02)/IC50 (A549)), the “SI IC50 (L-02/A549)” value was >2.7. Moreover, the IC50 with HepG2 hepatoma cell (Homo sapiens, HepG2) is > 100 µM. In the data set on AGS cells (Homo sapiens), this compound yielded an IC50 of 1.33 ± 0.15 µM. Further, the “SI IC50 (L-02/AGS)” value in the data set on AGS cells (selectivity index, IC50 (L-02)/IC50 (AGS)) was >75.1. Half-maximal inhibition in the data set with BEL-7402 cells (Homo sapiens) (IC50) was put at 0.72 ± 0.01 µM. In addition, the “SI IC50 (L-02/BEL-7402)” value in the data set with BEL-7402 cells (selectivity index, IC50 (L-02)/IC50 (BEL-7402)) is >138.8. Moreover, the IC50 in the data set with HCT116 cells (Homo sapiens, HCT-116) was found to be 0.17 ± 0.1 µM. In addition, in the data set with HCT116 cells (setting [4]), the “SI IC50 (L-02/HCT116)” value is >588.2. Moreover, the IC50 in the data set with L-02 normal liver cell (Homo sapiens) was > 100 µM. Further, the IC50 in data set [1] (Homo sapiens) was > 100 µM. The IC50 in data set [2] (Homo sapiens) was > 100 µM. Further, it took 5.79 ± 0.48 µM to reach half-maximal inhibition in data set [3] (Homo sapiens) (IC50). In the data set with MCF-7 breast cancer cell (Homo sapiens, MCF7), this compound came in with an IC50 of 4.37 ± 2.8 µM. The “SI IC50 (MCF-10A/MCF-7)” value in the data set with MCF-7 breast cancer cell (setting [5]) is given as >1.3.
`Cc1ccc(/C(C#N)=C/c2cccs2)cc1` [Compound 14a, (Z)-3-(Thiophen-2-yl)-2-(p-tolyl)acrylonitrile] displayed a melting point of 128 to 130 °C. Also, the IC50 in the data set on MGC-803 cells (Homo sapiens, MGC-803, 48 h) was > 100 µM. For the same compound, in the data set with A549 lung cancer cell (Homo sapiens), the half-maximal inhibitory concentration (IC50) was > 100 µM. Further, the IC50 in the data set with HepG2 hepatoma cell (Homo sapiens, HepG2) was > 100 µM. For the same compound, the IC50 in the data set with AGS cells (Homo sapiens) is > 100 µM. The IC50 with BEL-7402 cells (Homo sapiens) was > 100 µM. Moreover, the IC50 with HCT116 cells (Homo sapiens, HCT-116) is > 100 µM. Moreover, the IC50 in the data set on L-02 normal liver cell (Homo sapiens) was > 100 µM. Besides, the IC50 in data set [1] (Homo sapiens) was > 100 µM. Moreover, the IC50 in [2] (Homo sapiens) was > 100 µM. Further, the IC50 in data set [3] (Homo sapiens) was > 100 µM. Further, the IC50 with MCF-7 breast cancer cell (Homo sapiens, MCF7) is > 100 µM.
For `COc1ccc(/C=C\c2cc(OC)c(OC)c(OC)c2)cc1OP(=O)(O)O` [CA-4P, reference compound], the IC50 in the data set on MGC-803 cells was 0.03 ± 0.02 µM; with A549 lung cancer cell it was > 100 µM; with HepG2 hepatoma cell it was > 100 µM; with AGS cells it was 4.73 ± 0.22 µM; in the data set on BEL-7402 cells it was 5.45 ± 2.04 µM; in the data set on HCT116 cells, 0.59 ± 0.22 µM. For the same compound, the IC50 in the data set on L-02 normal liver cell was 2.67 ± 0.61 µM; in data set [1], > 100 µM; in [2], 0.12 ± 0.03 µM; in [3], 14.6 ± 1.36 µM; in the data set on MCF-7 breast cancer cell, 0.48 ± 0.25 µM. In addition, the “SI IC50 (L-02/MGC-803)” value with MGC-803 cells is on record as >89.0. The “SI IC50 (L-02/HCT116)” value in the data set with HCT116 cells (setting [4]) was >4.5. The “SI IC50 (MCF-10A/MCF-7)” value in the data set with MCF-7 breast cancer cell (setting [5]) is on record as >30.3.
Turning to `COc1ccc(/C=C\c2cc(OC)c(OC)c(OC)c2)cc1O` [CA-4, (Z)-2-methoxy-5–(3,4,5-trimethoxystyryl) phenol, reference compound], the IC50 is 0.06 ± 0.02 µM in the data set with MGC-803 cells (Homo sapiens, MGC-803, 48 h); > 100 µM with A549 lung cancer cell (Homo sapiens); > 100 µM in the data set with HepG2 hepatoma cell (Homo sapiens, HepG2); 3.42 ± 0.03 µM in the data set on AGS cells (Homo sapiens); 2.02 ± 0.03 µM with BEL-7402 cells (Homo sapiens); 0.16 µM in the data set on HCT116 cells (Homo sapiens, HCT-116). In addition, the IC50 is 1.1 ± 0.03 µM in the data set on L-02 normal liver cell (Homo sapiens); > 100 µM in [1] (Homo sapiens); 0.3 µM in [2] (Homo sapiens); 3.23 ± 1.21 µM in [3] (Homo sapiens); 0.22 ± 0.09 µM in the data set with MCF-7 breast cancer cell (Homo sapiens, MCF7). Besides, the “SI IC50 (L-02/HCT116)” value in the data set on HCT116 cells is recorded as >6.8. Also, in the data set with MCF-7 breast cancer cell, the “SI IC50 (MCF-10A/MCF-7)” value is recorded as >14.6.

These data come from paper PMC6161602, “Synthesis and characterisation of (Z)-styrylbenzene derivatives as potential selective anticancer agents” (Journal of Enzyme Inhibition and Medicinal Chemistry, 2018).
